{
  "source": "patent US20120171194A1",
  "about": "“Method of Cell Differentiation and Uses Therefor in Screening, Diagnosis and Therapy” (priority 2009, published 2012)",
  "test_system": "co-culture of HLA-A2 positive monocytes and HLA-A2 negative HUVECs",
  "assay": "Co-culture of PBMC-derived monocytes with HUVECs: endothelial incorporation of monocyte-derived EC-like cells (flow cytometry, HLA-A2)",
  "assay_type": "cell-based, human",
  "conditions": "day 3; for proportion of HLA-A2 positive cells of the total cell population: no apoA-I control about 15%; for endothelial incorporation of HLA-A2 positive monocyte-derived endothelial-like cells into the HUVECs layer (effect in words): apoA-I 0.25, 0.5 and 2.0 mg/ml",
  "procedure": "Human umbilical vein ECs (HUVEC) were isolated from human umbilical veins using collagenase digestion. Briefly, umbilical cords from normal or caesarean deliveries are collected and perfused with Ca^2+ and Mg^2+-free phosphate buffer saline (PBS). HUVECs were removed by short treatment at 37° C. with collagenase solution (0.1% in PBS with Ca^2+ and Mg^2+). HUVECS were cultured and expanded for use in investigation at no later than passage 4. Cells were grown under standard culture conditions of 37° C. in a 95% air/5% CO2 atmosphere in M199 media (Cell Applications or Invitrogen Australia) supplemented with 10% foetal bovine serum (FBS; Trace Bioscience, or Invitrogen Australia) or with 10% heat-inactivated human serum and with a D-glucose concentration of 5.0 mM. The human serum was obtained from healthy donors within 7 days of the experiment. The human serum was filtered with 0.22 μm PES membrane (Millipore) and heat inactivated at 56° C. for 30 minutes.\nThe ECs were screened for human leucocyte antigen-A2 type (HLA-A2) expression with direct immunofluorescence and flow cytometry (Beckman Coulter). The batches of HUVEC cells that were HLA-A2 negative were used in these investigations. Alternatively, batches of HACECs that are HLA-A2 negative are used in these investigations. The batches of HLA-A2 negative HUVECs preferably at second passage were grown to approximately 75% sub-confluence on 6-wells cell culture plates (Becton Dickinson Labware, growth area 9.6 cms^2 per well) at a density varying from 10,000 to 500,000 cells per well 24 hours before the co-culture. Usually a density of 500,000 cells per well is needed to achieve a fully confluent layer of HUVECS. Alternatively, batches of HLA-A2 negative HCAECs preferably at second passage are grown to approximately 75% sub-confluence on 6-wells cell culture plates (Bectin Dickinson Labware).\nFresh peripheral blood mononuclear cells (PBMCs) were obtained from venous blood of healthy HLA-A2 positive donors (n=5) by gradient centrifugation on Lymphoprep in a hypertonic medium (Lymphoprep™) and immediately seeded onto HUVECs. Alternatively, the PBMCs are immediately seeded onto HCAECs layers at densities ranging from 0.25 to 2×10^6 cells per well. […] The co-cultured cell layer containing HUVECs were detached at multiple time points between day 0 and day 6 by addition of 20 μl of detachment solution containing 0.12% trypsin and analyzed by direct immunofluoresence and flow cytometry inter alia for expression of cell surface markers. […]\nExpression of cell surface markers was analyzed by two-colors direct immunofluoresence and flow cytometry (Cytomics FC500, Beckman Coulter). […]",
  "data": [
    {"substance": "apolipoprotein A-I [apoA-I]", "values": [
      {"measurement": "proportion of HLA-A2 positive cells of the total cell population", "setting": "0.5 mg/ml apoA-I in co-culture, t test P<0.01", "value": "about 33%"},
      {"measurement": "proportion of HLA-A2 positive cells of the total cell population", "setting": "2.0 mg/ml apoA-I in co-culture", "value": "about 37%"},
      {"measurement": "endothelial incorporation of HLA-A2 positive monocyte-derived endothelial-like cells into the HUVECs layer (effect in words)", "value": "dose dependent increase"},
      {"measurement": "endothelial incorporation of HLA-A2 positive monocyte-derived endothelial-like cells into the HUVECs layer (effect in words)", "setting": "listed as ApoA-I", "value": "increased endothelial incorporation"}
    ]}
  ]
}
